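Step 1: Grow cells in 96-well plates. Step 2: Expose to compound for 48 hours at 5 concentrations. Step 3: Interpolate endpoints linearly; if unreached, use highest concentration. GI50 = concentration required for 50% inhibition of growth. TGI: total growth inhibition.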
How the values were obtained:
Experiment in all cases: inhibition of tumour cell growth, NCI panel, 48 h
CCRF-CEM leukemia = system: CCRF-CEM leukemia
TK-10 renal = system: TK-10 renal
SF-295 CNS = system: SF-295 CNS
SK-MEL-2 melanoma = system: SK-MEL-2 melanoma
NCI-H522 lung = system: NCI-H522 lung
OVCAR-8 ovarian = system: OVCAR-8 ovarian
UACC-257 melanoma = system: UACC-257 melanoma
SF-539 CNS = system: SF-539 CNS
SK-OV-3 ovarian = system: SK-OV-3 ovarian
ACHN renal = system: ACHN renal
UO-31 renal = system: UO-31 renal
MOLT-4 leukemia = system: MOLT-4 leukemia
RPMI-8226 leukemia = system: RPMI-8226 leukemia
M14 melanoma = system: M14 melanoma
A498 renal = system: A498 renal
K-562 leukemia = system: K-562 leukemia
COLO 205 colon = system: COLO 205 colon
HCT-116 colon = system: HCT-116 colon
BT-549 breast = system: BT-549 breast
UACC-62 melanoma = system: UACC-62 melanoma
HS 578T breast = system: HS 578T breast
HT29 colon = system: HT29 colon
NCI-H460 lung = system: NCI-H460 lung
NCI/ADR-RES ovarian = system: NCI/ADR-RES ovarian
SN12C renal = system: SN12C renal
NCI-H226 lung = system: NCI-H226 lung
DU-145 prostate = system: DU-145 prostate
PC-3 prostate = system: PC-3 prostate
T-47D breast = system: T-47D breast
SK-MEL-28 melanoma = system: SK-MEL-28 melanoma
MDA-MB-231 breast = system: MDA-MB-231 breast
NCI-H23 lung = system: NCI-H23 lung
SW-620 colon = system: SW-620 colon
CAKI-1 renal = system: CAKI-1 renal
MCF7 breast = system: MCF7 breast
MALME-3M melanoma = system: MALME-3M melanoma
LOX IMVI melanoma = system: LOX IMVI melanoma
SF-268 CNS = system: SF-268 CNS
OVCAR-5 ovarian = system: OVCAR-5 ovarian
OVCAR-4 ovarian = system: OVCAR-4 ovarian
SR leukemia = system: SR leukemia
MDA-MB-435 = system: MDA-MB-435
786-0 renal = system: 786-0 renal
U251 CNS = system: U251 CNS
HCC-2998 colon = system: HCC-2998 colon
HCT-15 colon = system: HCT-15 colon
HOP-92 NSCLC = system: HOP-92 NSCLC
OVCAR-3 ovarian = system: OVCAR-3 ovarian
KM12 colon = system: KM12 colon
HL-60(TB) leukemia = system: HL-60(TB) leukemia
EKVX NSCLC = system: EKVX NSCLC
RXF 393 renal = system: RXF 393 renal
SNB-75 CNS = system: SNB-75 CNS
A549 NSCLC = system: A549 NSCLC
SK-MEL-5 melanoma = system: SK-MEL-5 melanoma
HOP-62 NSCLC = system: HOP-62 NSCLC
IGROV1 ovarian = system: IGROV1 ovarian
SNB-19 CNS = system: SNB-19 CNS

SMILES: CC(C)C(=O)Nc1ccc(-c2nc(-c3cccc(O)c3)c(-c3ccnc(Br)c3)[nH]2)cc1
- GI50 (CCRF-CEM leukemia): 653 nM
- TGI (CCRF-CEM leukemia): > 100000 nM
- GI50 (TK-10 renal): 5880 nM
- TGI (TK-10 renal): 36800 nM
- GI50 (SF-295 CNS): 204 nM
- TGI (SF-295 CNS): 457 nM
- GI50 (SK-MEL-2 melanoma): 1640 nM
- TGI (SK-MEL-2 melanoma): 9810 nM
- GI50 (NCI-H522 lung): 1240 nM
- TGI (NCI-H522 lung): 9030 nM
- GI50 (OVCAR-8 ovarian): 1280 nM
- TGI (OVCAR-8 ovarian): 18600 nM
- GI50 (UACC-257 melanoma): 3470 nM
- TGI (UACC-257 melanoma): 24200 nM
- GI50 (SF-539 CNS): 685 nM
- TGI (SF-539 CNS): 2890 nM
- GI50 (SK-OV-3 ovarian): 1890 nM
- TGI (SK-OV-3 ovarian): 10600 nM
- GI50 (ACHN renal): 1700 nM
- TGI (ACHN renal): 26600 nM
- GI50 (UO-31 renal): 1040 nM
- TGI (UO-31 renal): 4590 nM
- GI50 (MOLT-4 leukemia): 835 nM
- TGI (MOLT-4 leukemia): 7980 nM
- GI50 (RPMI-8226 leukemia): 830 nM
- TGI (RPMI-8226 leukemia): 2430 nM
- GI50 (M14 melanoma): 764 nM
- TGI (M14 melanoma): 8130 nM
- GI50 (A498 renal): 957 nM
- TGI (A498 renal): 5550 nM
- GI50 (K-562 leukemia): 601 nM
- TGI (K-562 leukemia): > 100000 nM
- GI50 (COLO 205 colon): 1470 nM
- TGI (COLO 205 colon): 6940 nM
- GI50 (HCT-116 colon): 905 nM
- TGI (HCT-116 colon): 7680 nM
- GI50 (BT-549 breast): 1090 nM
- TGI (BT-549 breast): 7250 nM
- GI50 (UACC-62 melanoma): 758 nM
- TGI (UACC-62 melanoma): 5370 nM
- GI50 (HS 578T breast): 592 nM
- TGI (HS 578T breast): 2320 nM
- GI50 (HT29 colon): 1400 nM
- TGI (HT29 colon): > 60100 nM
- GI50 (NCI-H460 lung): 1450 nM
- TGI (NCI-H460 lung): 9010 nM
- GI50 (NCI/ADR-RES ovarian): 18000 nM
- TGI (NCI/ADR-RES ovarian): > 100000 nM
- GI50 (SN12C renal): 1490 nM
- TGI (SN12C renal): 34800 nM
- GI50 (NCI-H226 lung): 1780 nM
- TGI (NCI-H226 lung): 8950 nM
- GI50 (DU-145 prostate): 2540 nM
- TGI (DU-145 prostate): 41300 nM
- GI50 (PC-3 prostate): 877 nM
- TGI (PC-3 prostate): 8210 nM
- GI50 (T-47D breast): 1090 nM
- TGI (T-47D breast): 9590 nM
- GI50 (SK-MEL-28 melanoma): 1750 nM
- TGI (SK-MEL-28 melanoma): 23500 nM
- GI50 (MDA-MB-231 breast): 1610 nM
- TGI (MDA-MB-231 breast): 36300 nM
- GI50 (NCI-H23 lung): 1190 nM
- TGI (NCI-H23 lung): 12900 nM
- GI50 (SW-620 colon): 1400 nM
- TGI (SW-620 colon): 16200 nM
- GI50 (CAKI-1 renal): 932 nM
- TGI (CAKI-1 renal): 9120 nM
- GI50 (MCF7 breast): 566 nM
- TGI (MCF7 breast): 4510 nM
- GI50 (MALME-3M melanoma): 919 nM
- TGI (MALME-3M melanoma): 4900 nM
- GI50 (LOX IMVI melanoma): 404 nM
- TGI (LOX IMVI melanoma): 5710 nM
- GI50 (SF-268 CNS): 2830 nM
- TGI (SF-268 CNS): 40000 nM
- GI50 (OVCAR-5 ovarian): 2360 nM
- TGI (OVCAR-5 ovarian): 59100 nM
- GI50 (OVCAR-4 ovarian): 2850 nM
- TGI (OVCAR-4 ovarian): 27700 nM
- GI50 (SR leukemia): 1190 nM
- TGI (SR leukemia): > 100000 nM
- GI50 (MDA-MB-435): 4240 nM
- TGI (MDA-MB-435): 20600 nM
- GI50 (786-0 renal): 718 nM
- TGI (786-0 renal): 7630 nM
- GI50 (U251 CNS): 1100 nM
- TGI (U251 CNS): 47900 nM
- GI50 (HCC-2998 colon): 1380 nM
- TGI (HCC-2998 colon): 6710 nM
- GI50 (HCT-15 colon): 1260 nM
- TGI (HCT-15 colon): 9760 nM
- GI50 (HOP-92 NSCLC): 2170 nM
- TGI (HOP-92 NSCLC): 7270 nM
- GI50 (OVCAR-3 ovarian): 1090 nM
- TGI (OVCAR-3 ovarian): 6600 nM
- GI50 (KM12 colon): 1290 nM
- TGI (KM12 colon): 21700 nM
- GI50 (HL-60(TB) leukemia): 768 nM
- TGI (HL-60(TB) leukemia): 2740 nM
- GI50 (EKVX NSCLC): 1840 nM
- TGI (EKVX NSCLC): 25600 nM
- GI50 (RXF 393 renal): 370 nM
- TGI (RXF 393 renal): 1320 nM
- GI50 (SNB-75 CNS): 529 nM
- TGI (SNB-75 CNS): 2600 nM
- GI50 (A549 NSCLC): 1640 nM
- TGI (A549 NSCLC): 23600 nM
- GI50 (SK-MEL-5 melanoma): 1100 nM
- TGI (SK-MEL-5 melanoma): 3240 nM
- GI50 (HOP-62 NSCLC): 1820 nM
- TGI (HOP-62 NSCLC): 35200 nM
- GI50 (IGROV1 ovarian): 962 nM
- TGI (IGROV1 ovarian): 5830 nM
- GI50 (SNB-19 CNS): 1470 nM
- TGI (SNB-19 CNS): 61200 nM

Reference: PubChem BioAssay (NCI)
